Measured values as given in patent US20150157597A1, “NEURODEGENERATIVE DISEASE TREATMENT USING JAK/STAT INHIBITION” (Uinversity of South Florida, priority 2007, published 2015).
“Also recorded” adds a separate entry of the source.

Assays:
[1] = tested on: primary cultured neuronal cells; experiment: LDH release assay, primary cultured neurons challenged with gp120/Tat and IFN-γ; assay type: cell-based, mouse; details: for Neuronal injury, LDH release: JAK inhibitor 50 nM, IFN-γ 100 U/ml with gp120 or Tat 250 ng/ml; for Neuronal injury, LDH release / LDH release: 12 h
Description: (§1) Primary cultures of mouse cortical neurons were prepared as described previously (Chin et al., 1997). Briefly, neuronal cells were isolated from newborn C57BL16 mice and seeded in 6-well tissue-culture plates at 2×10^5 cells/well for 48 h. […] In addition, to test whether EGCG could inhibit JAK/STAT1 signaling and neuronal damage induced by gp120 or/and Tat in the presence of IFN-γ, EGCG was also employed as the co-treatment. Cell culture supernatants were used for LDH assay while cell lysates were used for Western blot analysis of Bcl-xL and Bax proteins.
(§2) Normal C57BL/6 primary cultured neuronal cells as well as STAT1-deficient primary neuronal cells were isolated and cultured as described previously (Chin et al., 1997). Normal cells were co-treated with either gp120 or Tat (250 ng/ml) with or without IFN-γ (100 U/ml) and/or JAK inhibitor (50 nM). STAT1-deficient cells were treated with HIV-1 gp120 or HIV-1 Tat (250 ng/ml) in the presence or absence of IFN-γ (100 U/ml) for 12 h. At the end of the treatment period, neuronal cells were washed in ice-cold PBS three times and lysed in ice-cold lysis buffer. After incubation for 30 mm on ice, samples were centrifuged at high speed for 15 mm, and supernatants were collected. Total protein content was estimated by using the Bio-Rad protein assay. For phosphorylation of JAK1, membranes were first hybridized with phosphospecific Tyr1022/1023 JAK1 antibody (Cell Signaling Technology, Beverly, Mass.) and then stripped and finally analyzed by total JAK1. For STAT1 phosphorylation, membranes were probed with a phospho-Ser727 STAT1 antibody (Cell Signaling Technology), stripped with stripping solution, and then re-probed with an antibody that recognizes total STAT1 (Cell Signaling Technology). Alternatively, membranes with identical samples were probed either with phospho-JAK or STAT1 or with an antibody that recognizes total JAK or STAT1. Immunoblotting was performed with a primary antibody, followed by an anti-rabbit HRP-conjugated IgG secondary antibody as a tracer. After being washed in TBS, the membranes were incubated in the luminol reagent and exposed to film.
LOU release assay (Promega, Madison, Wis.) was performed as previously described (Tan et al., 2002). Briefly, after treatment at a variety of conditions, cell cultured media were collected for LOU release assay. Total LDH release was represent maximal lysis of target cells with 5% Triton X-100. Data are presented as mean±SD of LOU release.

[2] = tested on: primary cultured neuronal cells; experiment: Western blot band density ratio of Bcl-xL to Bax in primary neuron lysates; assay type: cell-based, mouse; details: 12 h; for Neuronal injury, Western blot band density ratio of Bcl-xL to Bax: JAK inhibitor 50 nM, IFN-γ 100 U/ml with gp120 or Tat 250 ng/ml
Description: as §1, §2
Western blot was performed as described previously (Tan et al., 2002). Briefly, for the in vivo studies left hemispheres of mouse brains were lysed in ice-cold lysis buffer and an aliquot corresponding to 50 μg of total protein was electrophoretically separated using 16.5% Tris-tricine gels. Electrophoresed proteins were then transferred to PVDF membranes (BioRad), washed in dH2O, and blocked for 1 h at ambient temperature in Tris-buffered saline containing 5% (w/v) nonfat dry milk. […] Densitometric analysis was done using the Fluor-S MultiImager™ with Quantity One™ software (Bio-Rad). […]

JAK1 = JAK1 phosphorylation by Western blot in primary cultured neurons; assay type: cell-based, mouse
Description: as §2, with “Alternatively, membranes with identical samples were probed either with phospho-JAK or STAT1 or with an antibody that recognizes total JAK or STAT1. Immunoblotting was performed with a primary antibody, followed by an anti-rabbit HRP-conjugated IgG secondary antibody as a tracer. After being washed in TBS, the membranes were incubated in the luminol reagent and exposed to film.” left out
(§3) Western blot was performed as described previously (Tan et al., 2002). […] Densitometric analysis was done using the Fluor-S MultiImager™ with Quantity One™ software (Bio-Rad). […]

C57BL/6 mice [3] = experiment: In vivo neurotoxicity, Bcl-xL/Bax Western blot of brain homogenates; design: species or system mouse; details: 24 h
Excerpt: (§4) Animals were anesthetized using isoflurane (chamber induction at 4-5% isoflurane, intubation and maintenance at 1-2%). After reflexes were checked to ensure that mice were unconscious, they were positioned on a stereotaxic frame (Stoelting Lab Standard) with ear-bars positioned and jaws fixed to a biting plate. The axis coordinates were taken from a mouse brain atlas, and a 5-mm sterile plastic guide cannula (21 GA; Plastic One, Inc., Roanoke, Va.) was implanted into the left lateral ventricle delimited from the stereotaxic coordinates (coordinates relative to bregma: −0.6 mm anterior/posterior, +1.2 mm medial/lateral, and −3.0 mm dorsal/ventral) using the stereotaxic device (Stoelting Lab Standard) and an attached probe (cannula) holder. IFN-γ (200 U/mouse) with HIV-1 protein gp120 (500 ng/mouse) or Tat (500 ng/mouse) or PBS (10 μl) was administered at the rate of 1 μl/min using a Hamilton syringe (modified with a solder stop to prevent over insertion of the needle) through the implanted cannula. Correctness of the injection was confirmed by trypan blue dye administration and histological examination. The wounds were closed with 1-2 staples and mice were all observed until anesthesia had cleared. […]
as §3

STAT1 = STAT1 phosphorylation by Western blot in primary cultured neurons; assay type: cell-based, mouse
Description: as §2, with “Alternatively, membranes with identical samples were probed either with phospho-JAK or STAT1 or with an antibody that recognizes total JAK or STAT1. Immunoblotting was performed with a primary antibody, followed by an anti-rabbit HRP-conjugated IgG secondary antibody as a tracer. After being washed in TBS, the membranes were incubated in the luminol reagent and exposed to film.” left out
as §3

C57BL/6 mice [4] = experiment: In vivo neurotoxicity, NeuN staining of cortical brain sections after i.c.v. injection; design: species or system mouse; details: 24 h
Excerpt: as §4, with “cannula.” for “cannula. Correctness of the injection was confirmed by trypan blue dye administration and histological examination. The wounds were closed with 1-2 staples and mice were all observed until anesthesia had cleared.”
At sacrifice, mice were anesthetized with isofluorane and transcardially perfused with ice-cold physiological saline containing heparin (10 U/ml). […] After another cycle of washing, floating sections were mounted onto slides, dehydrated and coverslipped with Vectashield fluorescence mounting media (Vector Labs., Burlingame, Calif.). […]

[5] = EGCG 20 μM, gp120 or Tat 500 ng/ml with IFN-γ 100 U/ml
[6] = EGCG at a range of doses co-incubated with IFN-γ 100 U/ml, 60 min
[7] = EGCG 50 mg/kg i.p., i.c.v. IFN-γ/gp120 or IFN-γ/gp120/Tat
[8] = IFN-γ 100 U/ml added to gp120 or Tat 250 ng/ml
[9] = IFN-γ 100 U/ml, time-dependently

Q: For `CC(C)(C)c1nc2c3ccc(F)cc3c3c(=O)[nH]ccc3c2[nH]1` [JAK inhibitor, 2-(1,1-Dimethylethyl)-9-fluoro-3,6-dihydro-7H-benz[h] -imidaz[4,5-f] isoquinolin-7-one], which “Cell death and apoptosis indicators (LDH, Bcl-xL/Bax) versus control treatment group” value ([1]; JAK1 inhibitor, combination of gp120 and Tat included in the treatment) is on record?
A: Its value is “did not return to baseline levels”.

Q: And the “Neuronal injury, LDH release” value [1]?
A: Its value is “significantly inhibited”.

Q: And the “Neuronal injury, LDH release” value ([1]; listed as JAK1 inhibitor)?
A: The value was “greatly reduced”.

Q: And the “Neuronal injury, Western blot band density ratio of Bcl-xL to Bax” value [2]?
A: The value was “significantly inhibited”.

Q: What about the “Neuronal injury, Western blot band density ratio of Bcl-xL to Bax” value ([2]; listed as JAK1 inhibitor) of the same molecule?
A: The value was “greatly reduced”.

Q: For (-)-epigallocatechin-3-gallate [EGCG], which LDH release [1, 5] is on record?
A: The LDH release was “decreased”.

Q: What about the “Ratio of Bcl-xL to Bax” value [2, 5] of the same molecule?
A: The value was “increased”.

Q: What about the JAK1 phosphorylation (JAK1; [6]) of the same molecule?
A: The JAK1 phosphorylation was “dose-dependent inhibition”.

Q: What about the “Ratio of Bcl-xL to Bax in brain homogenates” value (C57BL/6 mice [3]; [7]) of the same molecule?
A: Its value is “significant increases”.

Q: What about the STAT1 phosphorylation (STAT1; [6]) of the same molecule?
A: The STAT1 phosphorylation was “dose-dependent inhibition”.

Q: What about the “Neuronal damage in cortical regions (NeuN)” value (C57BL/6 mice [4]; [7]) of the same molecule?
A: Its value is “marked reduction; also recorded: protective”.

Q: Which LDH release [1, 8] does the source give for “IFN-γ: murine recombinant IFN-γ; R&D Systems; type II interferon, soluble cytokine” here?
A: The LDH release was “significantly increased”.

Q: And the “Band density ratio of Bcl-xL to Bax” value [2, 8]?
A: The value was “reduced”.

Q: And the “Phosphorylation of JAK1” value (JAK1; [9])?
A: The value was “stimulates phosphorylation”.

Q: And the “Ratio of Bcl-xL to Bax in brain homogenates” value (C57BL/6 mice [3]; i.c.v. IFN-γ 200 U/mouse with gp120 or Tat 500 ng/mouse)?
A: Its value is “significant reduction”.

Q: What about the “Phosphorylation of STAT1” value (STAT1; [9]) of the same molecule?
A: The value was “stimulates phosphorylation”.

Q: What about the “Neuronal damage in cortical brain regions (NeuN)” value (C57BL/6 mice [4]; i.c.v. IFN-γ 200 U/mouse plus gp120 500 ng/mouse vs controls, IFN alone or gp120 alone) of the same molecule?
A: The value was “marked increase”.
